Assay results reported in patent US20050107616A1, “Alpha-ketoamide derivatives as cathepsin k inhibitors” (priority 2001, published 2005).

Target: T1, human cathepsin K (Homo sapiens, UniProt P43235)
T1 construct: The proform of cathepsin K was converted to mature cathepsin K by brief exposure to pH 4; made in house; host or cells: baculovirus; Trichoplusia ni High Five cells (virus raised in Sf-9)
T1 sequence (P43235 115-329): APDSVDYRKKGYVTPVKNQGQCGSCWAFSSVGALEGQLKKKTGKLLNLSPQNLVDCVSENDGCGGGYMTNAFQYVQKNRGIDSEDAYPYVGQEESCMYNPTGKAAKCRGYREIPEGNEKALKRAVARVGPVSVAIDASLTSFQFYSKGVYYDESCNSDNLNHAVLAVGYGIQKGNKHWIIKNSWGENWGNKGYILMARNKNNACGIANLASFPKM
Experiment: Cathepsin K inhibition assay, fluorogenic substrate Cbz-Phe-Arg-AMC, progress curve method
Format: biochemical
Conditions: Table 1; human recombinant enzyme, pH 5.5, 30° C., 10 μM substrate; read-out: hCat K Ki
Description: All assays for cathepsin K were carried out with human and rat recombinant enzyme. Assays for cathepsins S Et V were also carried out with human recombinant enzyme. Assays for human cathepsins B. H. and L were carried out with enzyme, purchased from Athens Research and Technology, Inc., prepared from human liver tissue. […] A stock substrate solution of Cbz-Phe-Arg-AMC was prepared at a concentration of 50 mM in dimethyl sulfoxide. This substrate was diluted into the assay for a final substrate concentration of 10 μM in the rat cathepsin K, human cathepsin K, and human cathepsin B assays; a final substrate concentration of 5 μM in the human cathepsin L assay; and a final substrate concentration of 2 μM in the human cathepsin V assay.
All assays contained 10% dimethyl sulfoxide. […] All assays were conducted at 30° C. Product fluorescence (excitation at 360 nm; emission at 440 nm, (except cathepsin H which used excitation at 340 nm; emission at 420 nm)) was monitored with a PerSeptive Biosystems Cytofluor II fluorescence plate reader. Product progress curves were generated over 2.3 h monitoring the formation of 7-amino-4-methylcoumarin product (or β-naphthalamide for cathepsin H).
Two liters of Spodoptera frugiperda (Sf-9) cells (ATCC) were grown in Grace's Supplemented medium (Life Technologies) supplemented with 2 g/L glucose, 10% a fetal bovine serum (HyClone) and 0.10% pluronic F-68 (Life Technologies). […] The cells continued to grow for 72 h post-infection, before the virus was harvested by centrifugation at 1400× g for 30 min.
One and one-half liters of Trichoplusia ni (T. ni) High Five (TM) cells [JRH Biosciences, Woodland, Calif. […] Media were separated from cells at a rate of 1 L/min using the Centritech 100 (TM) continuous-flow centrifuge (DuPont) operating at 200× g.
Protein Purification: Media (human and rat) were filtered through a Whatman 3 filter, and then loaded onto a 25 mL Poros HS II (26 mm×47 mm) cation exchange column equilibrated in 25 mM sodium acetate at pH 5.5 (equilibration buffer). The column was washed until the absorbance reached the baseline value, and then the protein was eluted with a linear gradient from 0-2 M sodium chloride in the equilibration buffer. Column fractions were analyzed by SDS-PAGE, N-terminal sequencing, and mass spectrometry. Fractions containing the proform of cathepsin K were pooled and frozen at −80° C. The proform was concentrated in an Amicon Centriprep 10 and fractionated with a Superdex 75 column (26 mm×600 mm, Pharmacia) equilibrated in 400 mM sodium chloride, 25 mM sodium acetate at pH 5.5.
Cathepsin K Activation: The proform of cathepsin K was converted to mature cathepsin K by brief exposure to pH 4 in the presence of 5 mM L-cysteine. Typically, 5 mM L-cysteine was added to 10 mL of approximately 1 mg/mL procathepsin K. One mL of this solution was diluted ten-fold into 450 mM sodium acetate at pH 4.0 containing 5 mM L-cysteine. This solution was reacted at 23° C. for 2 min before neutralization with 2 mL 1.8 M sodium acetate at pH 6.0. The neutralized sample was added to the remaining 9 mL of procathepsin K. The mixture was incubated at 4° C. for 2-3 days. The activated cathepsin K was chromatographed on a Poros HS II column as described above.
Potential inhibitors were evaluated using the progress curve method. Assays were carried out in the presence of variable concentrations of test compound. Reactions were initiated by addition of buffered solutions of inhibitor and substrate to enzyme. Data analysis was conducted according to one of two procedures depending on the appearance of the progress curves in the presence of inhibitors. […] Ki values were calculated from IC50 values using equation 2 assuming a competitive model. [formula]

| Ki [nM] | SMILES |
| --- | --- |
| 0.01 to 1 | CCCC[C@H](NC(=O)O[C@H](COc1ccc(-n2ccnc2)cc1)C(C)(C)C)C(=O)C(=O)Nc1ccn[nH]1 [Example 49, (1S)-1-{[4-(1H-imidazol-1-yl)phenoxy]methyl}-2,2-dimethylpropyl(1S)-1-[oxo(1H-pyrazol-5-ylamino)acetyl]pentylcarbamate] |
| 0.01 to 1 | CCCC[C@H](NC(=O)O[C@H](Cn1ccc(-c2cccnc2)n1)C(C)(C)C)C(=O)C(=O)Nc1ccn[nH]1 [Example 44, (1S)-2,2-dimethyl-1-{[3-(3-pyridinyl)-1H-pyrazol-1-yl]methyl}propyl (1S)-1-[oxo(1H-pyrazol-5-ylamino)acetyl]pentylcarbamate] |
| 0.01 to 1 | CCCC[C@H](NC(=O)O[C@H](Cn1cnc(-c2cc(C(F)(F)F)cc(C(F)(F)F)c2)c1)C(C)(C)C)C(=O)C(=O)Nc1ccn[nH]1 [Example 50, (1S)-1-({4-[3,5-bis(trifluoromethyl)phenyl]-1H-imidazol-1-yl}methyl)-2,2-dimethylpropyl(1S)-1-[oxo(1H-pyrazol-5-ylamino)acetyl]pentylcarbamate] |
| 1 to 100 | CCCC[C@H](NC(=O)O[C@H](Cc1nnc(-c2ccc(F)cc2)o1)C(C)(C)C)C(=O)C(=O)NCc1ccncc1 [Example 24, (1R)-1-{[5-(4-fluorophenyl)-1,3,4-oxadiazol-2-yl]methyl}-2,2-dimethylpropyl(1S)-1-{oxo[(4-pyridinylmethyl)amino]acetyl}pentylcarbamate] |
| 0.01 to 1 | CCCC[C@H](NC(=O)O[C@H](Cn1cnc2ccccc21)C(C)(C)C)C(=O)C(=O)Nc1ccn[nH]1 [Example 27, (1S)-1-(1H-benzimidazol-1-ylmethyl)-2,2-dimethylpropyl(1S)-1-[oxo(1H-pyrazol-5-ylamino)acetyl]pentylcarbamate] |
| 0.01 to 1 | CCCC[C@H](NC(=O)O[C@H](c1cccc(-c2ccccc2)c1)C(C)(C)C)C(=O)C(=O)Nc1ccn[nH]1 [Example 42, (1S)-1-[1,1′-biphenyl]-3-yl-2,2-dimethylpropyl(1S)-1-[oxo(1H-pyrazol-5-ylamino)acetyl]pentylcarbamate] |
| 0.01 to 1 | CCCC[C@H](NC(=O)O[C@H](Cn1ccc(-c2cccnc2)n1)C(C)(C)C)C(=O)C(=O)Nc1nccs1 [Example 33, (1S)-2,2-dimethyl-1-{[3-(3-pyridinyl)-1H-pyrazol-1-yl]methyl}propyl(1S)-1-[oxo(1,3-thiazol-2-ylamino)acetyl]pentylcarbamate] |
| 100 to 10000 | CCCC[C@H](NC(=O)O[C@@H](Cc1nnc(-c2ccccc2)o1)C(C)(C)C)C(=O)C(=O)N[C@H](C)c1ccccc1 [Example 16, (1S)-2,2-dimethyl-1-[(5-phenyl-1,3,4-oxadiazol-2-yl)methyl]propyl (1S)-1-(oxo{[(1R)-1-phenylethyl]amino}acetyl)pentylcarbamate] |
| 0.01 to 1 | CCCC[C@H](NC(=O)O[C@H](Cn1ccc(-c2ccncc2)n1)C(C)(C)C)C(=O)C(=O)Nc1ccn[nH]1 [Example 45, (1S)-2,2-dimethyl-1-{[3-(4-pyridinyl)-1H-pyrazol-1-yl]methyl}propyl(1S)-1-[oxo(1H-pyrazol-5-ylamino)acetyl]pentylcarbamate] |
| 0.01 to 1 | CCCC[C@H](NC(=O)O[C@H](Cc1nnc(-c2ccc(C(F)(F)F)cc2)o1)C(C)(C)C)C(=O)C(=O)Nc1ccn[nH]1 [Example 3] |
| 100 to 10000 | CCCC[C@H](NC(=O)O[C@@H](Cc1nnc(-c2ccc(F)cc2)o1)C(C)(C)C)C(=O)C(=O)N[C@H](C)c1ccccc1 [Example 20, (1S)-1-{[5-(4-fluorophenyl)-1,3,4-oxadiazol-2-yl]methyl}-2,2-dimethylpropyl(1S)-1-(oxo{[(1R)-1-phenylethyl]amino}acetyl)pentylcarbamate] |

The next lines start with the molecule.

| SMILES | Ki [nM] |
| --- | --- |
| CCCC[C@H](NC(=O)O[C@H](Cn1cnc(-c2ccc(C(F)(F)F)cc2)c1)C(C)(C)C)C(=O)C(=O)Nc1nccs1 [Example 51, (1S)-2,2-dimethyl-1-({4-[4-(trifluoromethyl)phenyl]-1H-imidazol-1-yl}methyl)propyl(1S)-1-[oxo(1,3-thiazol-2-ylamino)acetyl]pentylcarbamate] | 1 to 100 |
| CCCC[C@H](NC(=O)O[C@@H](c1nnc(-c2ccncc2)o1)C(C)(C)C)C(=O)C(=O)Nc1ccn[nH]1 [Example 55, (1R)-2,2-dimethyl-1-[5-(4-pyridinyl)-1,3,4-oxadiazol-2-yl]propyl (1S)-1-[oxo(1H-pyrazol-5-ylamino)acetyl]pentylcarbamate] | 100 to 10000 |
| CCCC[C@H](NC(=O)O[C@H](COc1ccc(OCc2ccccc2)cc1)C(C)(C)C)C(=O)C(=O)Nc1ccn[nH]1 [Example 47, (1S)-1-{[4-(benzyloxy)phenoxy]methyl}-2,2-dimethylpropyl(1S)-1-[oxo(1H-pyrazol-5-ylamino)acetyl]pentylcarbamate] | 0.01 to 1 |
| CCCC[C@H](NC(=O)O[C@H](Cc1nnc(-c2ccccc2)o1)C(C)(C)C)C(=O)C(=O)N[C@H](C)c1ccccc1 [Example 15, (1R)-2,2-dimethyl-1-[(5-phenyl-1,3,4-oxadiazol-2-yl)methyl]propyl(1S)-1-(oxo{[(1R)-1-phenylethyl]amino}acetyl)pentylcarbamate] | 0.01 to 1 |
| CCCC[C@H](NC(=O)O[C@H](Cn1ccc(-c2ccc(C(F)(F)F)cc2)n1)C(C)(C)C)C(=O)C(=O)NCc1ccno1 [Example 36, (1S)-2,2-dimethyl-1-({3-[4-(trifluoromethyl)phenyl]-1H-pyrazol-1-yl}methyl)propyl(1S)-1-[[(5-isoxazolylmethyl)amino](oxo)acetyl]pentylcarbamate] | 1 to 100 |
| CCCC[C@H](NC(=O)O[C@H](Cc1nnc(-c2ccc(F)cc2)o1)C(C)(C)C)C(=O)C(=O)Nc1ccccn1 [Example 21, (1R)-1-{[5-(4-fluorophenyl)-1,3,4-oxadiazol-2-yl]methyl}-2,2-dimethylpropyl(1S)-1-[oxo(2-pyridinylamino)acetyl]pentylcarbamate] | 100 to 10000 |
| CCCC[C@H](NC(=O)O[C@@H](c1cccc(-c2ccccc2)c1)C(C)(C)C)C(=O)C(=O)Nc1ccn[nH]1 [Example 41, (1R)-1-[1,1′-biphenyl]-3-yl-2,2-dimethylpropyl(1S)-1-[oxo(1H-pyrazol-5-ylamino)acetyl]pentylcarbamate] | 100 to 10000 |
| CCCC[C@H](NC(=O)O[C@H](COc1ccc(C(N)=O)cc1)C(C)(C)C)C(=O)C(=O)Nc1ccn[nH]1 [Example 48, (1S)-1-{[4-(aminocarbonyl)phenoxy]methyl}-2,2-dimethylpropyl(1S)-1-[oxo(1H-pyrazol-5-ylamino)acetyl]pentylcarbamate] | 0.01 to 1 |
| CCCC[C@H](NC(=O)O[C@H](Cc1nnc(-c2ccc(F)cc2)o1)C(C)(C)C)C(=O)C(=O)N[C@H](C)c1ccccc1 [Example 19, (1R)-1-{[5-(4-fluorophenyl)-1,3,4-oxadiazol-2-yl]methyl}-2,2-dimethylpropyl(1S)-1-(oxo{[(1R)-1-phenylethyl]amino}acetyl)pentylcarbamate] | 0.01 to 1 |
| CCCC[C@H](NC(=O)O[C@H](Cc1nnc(-c2ccc(C(F)(F)F)cc2)o1)C(C)(C)C)C(=O)C(=O)NN1CCOC1=O [Example 28, (1R)-2,2-dimethyl-1-({5-[4-(trifluoromethyl)phenyl]-1,3,4-oxadiazol-2-yl}methyl)propyl(1S)-1-{oxo[(2-oxo-1,3-oxazolidin-3-yl)amino]acetyl}pentyl carbamate] | 0.01 to 1 |
